Data reported in patent US20220306695A1, “COMPSTATIN ANALOGUES AND THEIR MEDICAL USES” (priority 2019, published 2022).
Where two headings read alike, the source gives them in different places. Positions of bridges follow the written chain, without caps; N, C: chain ends. Residues, ends and D or L forms follow the SMILES beside them.

What was measured:
[1] = Solubility test at 10 mg/mL (visual inspection and light scattering); format: physicochemical; details: for Solubility, Condition 1 Acetate pH 4: 10 mg/mL compound in 100 mM acetate pH 4; for Solubility, Condition 2 Acetate pH 5: 10 mg/mL compound in 100 mM acetate pH 5; for Solubility, Condition 3 Phosphate pH 6: 10 mg/mL compound in 100 mM phosphate pH 6; for Solubility, Condition 4 Phosphate pH 7: 10 mg/mL compound in 100 mM phosphate pH 7; for Solubility, Condition 5 Phosphate pH 7.5: 10 mg/mL compound in 100 mM phosphate pH 7.5
Procedure: The solubility of compounds was assessed by measuring light scattering over a pH interval from pH 4 to pH 7.5.
Compounds were dissolved in a stock solution of 20 mg/mL in H2O at pH 2.5 or pH 10.
These stock solutions were diluted 1:1 with 200 mM buffered solution to reach a final solution of 10 mg/mL compound in 100 mM buffer. The 5 investigated conditions were (1) acetate pH 4.0, (2) acetate pH 5.0, (3) phosphate pH 6.0, (4) phosphate pH 7 and (5) phosphate pH 7.5.
Visual inspection included manually checking the 96 well plate for wells that are clear or non-clear. In addition to this a picture of the 96 well plate is taken.
Absorbance was measured at four wavelengths: 280 nm, 325 nm, 340 nm and 360 nm in an UV transparent 96 well microplate in a SpectraMax 190 microplate reader (Molecular Devices).
The criteria for this was a combination of visual inspection and light scattering not exceeding 0.1 AU, where values below 0.1 AU are good in visually clear samples. […]

[2] = test system: classical complement pathway; experiment: In vitro haemolysis assay (inhibition of classical complement pathway); format: cell-based, human
How it was run: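 Serially diluted compound (9 points) was preincubated 15 min at room temperature with diluted human serum, titrated per batch to give 70-90% maximal haemolysis, in Tris/casein buffer pH 7.4 with Mg2+/Ca2+. Antibody-sensitized sheep erythrocytes were then added for 30 min at 37° C, and the reaction was stopped with EDTA. Haemolysis was read at A405, with IC50 from 4PL fit.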

[3] = Table 3, human serum, sensitized sheep red blood cells, read-out: IC50[nM], in vitro analysis of inhibition of hemolysis

Structure (SMILES)	Solubility, Condition 1 Acetate pH 4 [1]	Solubility, Condition 2 Acetate pH 5 [1]	Solubility, Condition 3 Phosphate pH 6 [1]	Solubility, Condition 4 Phosphate pH 7 [1]	Solubility, Condition 5 Phosphate pH 7.5 [1]	IC50 ([2]; Table 2, human serum, sensitized sheep red blood cells, read-out: CP hemolysis IC50) [nM]	IC50 [2, 3] [nM]	IC50 ([2]; Table 4, valine 3 versus isoleucine 3 pairs, read-out: CP hemolysis IC50) [nM]
CC[C@H](C)[C@H](NC(C)=O)C(=O)N[C@H]1CSSC[C@@H](C(=O)N[C@H](C(N)=O)[C@@H](C)O)NC(=O)[C@H](CCCNC(=N)N)NC(=O)[C@H](Cc2c[nH]cn2)NC(=O)[C@H](C)NC(=O)CNC(=O)[C@H](Cc2c[nH]c3ccccc23)NC(=O)[C@H](CC(=O)O)NC(=O)[C@H](CCC(N)=O)NC(=O)[C@H](Cc2c[nH]c3ccccc23)NC(=O)[C@H]([C@@H](C)CC)NC1=O [Compound 1] (Ac-ICIWQDWGAHRCT-NH2; disulfide 2-12)	+ (denotes solubility at the given condition, as determined by UV absorbance being less than 0.1 AU at 340 nm and the sample being clear when manually inspected.)	− (denotes lack of solubility at the given condition, as UV absorbance at 340 nm exceeds 0.1 AU and/or it is visibly turbid or contains particles.)	− (denotes lack of solubility at the given condition, as UV absorbance at 340 nm exceeds 0.1 AU and/or it is visibly turbid or contains particles.)	− (denotes lack of solubility at the given condition, as UV absorbance at 340 nm exceeds 0.1 AU and/or it is visibly turbid or contains particles.)	− (denotes lack of solubility at the given condition, as UV absorbance at 340 nm exceeds 0.1 AU and/or it is visibly turbid or contains particles.)	150	< 250	–
CC[C@H](C)[C@H](NC(=O)[C@H](C)NC(=O)[C@H](CO)NC(=O)[C@H](CO)NC(=O)[C@H](CCC(=O)O)NC(C)=O)C(=O)N[C@H]1CSSC[C@@H](C(=O)N[C@H](C(N)=O)[C@@H](C)O)NC(=O)[C@H](CCCNC(=N)N)NC(=O)[C@H](Cc2c[nH]cn2)NC(=O)[C@H](CCC(=O)O)NC(=O)CNC(=O)[C@H](Cc2c[nH]c3ccccc23)NC(=O)[C@H](CC(=O)O)NC(=O)[C@H](CCC(N)=O)NC(=O)[C@H](Cc2c[nH]c3ccccc23)NC(=O)[C@H]([C@@H](C)CC)NC1=O [Compound 3] (Ac-ESSAICIWQDWGEHRCT-NH2; disulfide 6-16)	+ (denotes solubility at the given condition, as determined by UV absorbance being less than 0.1 AU at 340 nm and the sample being clear when manually inspected.)	− (denotes lack of solubility at the given condition, as UV absorbance at 340 nm exceeds 0.1 AU and/or it is visibly turbid or contains particles.)	− (denotes lack of solubility at the given condition, as UV absorbance at 340 nm exceeds 0.1 AU and/or it is visibly turbid or contains particles.)	+ (denotes solubility at the given condition, as determined by UV absorbance being less than 0.1 AU at 340 nm and the sample being clear when manually inspected.)	+ (denotes solubility at the given condition, as determined by UV absorbance being less than 0.1 AU at 340 nm and the sample being clear when manually inspected.)	–	< 100	69
CC[C@H](C)[C@H](NC(=O)[C@H](C)NC(=O)[C@H](CO)NC(=O)[C@H](CO)NC(=O)[C@H](CCC(=O)O)NC(C)=O)C(=O)N[C@H]1CSSC[C@@H](C(=O)N[C@H](C(=O)NCC(=O)N[C@@H](C)C(=O)N[C@@H](CCC(=O)O)C(=O)N[C@@H](CO)C(N)=O)[C@@H](C)O)NC(=O)[C@H](CCCNC(=N)N)NC(=O)[C@H](Cc2c[nH]cn2)NC(=O)[C@H](CCC(=O)O)NC(=O)CNC(=O)[C@H](Cc2c[nH]c3ccccc23)NC(=O)[C@H](CC(=O)O)NC(=O)[C@H](CCC(N)=O)NC(=O)[C@H](Cc2c[nH]c3ccccc23)NC(=O)[C@H]([C@@H](C)CC)NC1=O [Compound 14] (Ac-ESSAICIWQDWGEHRCTGAES-NH2; disulfide 6-16)	+ (denotes solubility at the given condition, as determined by UV absorbance being less than 0.1 AU at 340 nm and the sample being clear when manually inspected.)	− (denotes lack of solubility at the given condition, as UV absorbance at 340 nm exceeds 0.1 AU and/or it is visibly turbid or contains particles.)	− (denotes lack of solubility at the given condition, as UV absorbance at 340 nm exceeds 0.1 AU and/or it is visibly turbid or contains particles.)	+ (denotes solubility at the given condition, as determined by UV absorbance being less than 0.1 AU at 340 nm and the sample being clear when manually inspected.)	+ (denotes solubility at the given condition, as determined by UV absorbance being less than 0.1 AU at 340 nm and the sample being clear when manually inspected.)	–	< 100	–
CC[C@H](C)[C@H](NC(C)=O)C(=O)N[C@H]1CSSC[C@@H](C(=O)N[C@@H](CCC(=O)O)C(N)=O)NC(=O)[C@H](CCCNC(=N)N)NC(=O)[C@H](Cc2c[nH]cn2)NC(=O)[C@H](CCC(=O)O)NC(=O)CNC(=O)[C@H](Cc2c[nH]c3ccccc23)NC(=O)[C@H](CC(=O)O)NC(=O)[C@H](CCC(N)=O)NC(=O)[C@H](Cc2c[nH]c3ccccc23)NC(=O)[C@H]([C@@H](C)CC)NC1=O [Compound 22] (Ac-ICIWQDWGEHRCE-NH2; disulfide 2-12)	+ (denotes solubility at the given condition, as determined by UV absorbance being less than 0.1 AU at 340 nm and the sample being clear when manually inspected.)	− (denotes lack of solubility at the given condition, as UV absorbance at 340 nm exceeds 0.1 AU and/or it is visibly turbid or contains particles.)	− (denotes lack of solubility at the given condition, as UV absorbance at 340 nm exceeds 0.1 AU and/or it is visibly turbid or contains particles.)	+ (denotes solubility at the given condition, as determined by UV absorbance being less than 0.1 AU at 340 nm and the sample being clear when manually inspected.)	+ (denotes solubility at the given condition, as determined by UV absorbance being less than 0.1 AU at 340 nm and the sample being clear when manually inspected.)	–	< 100	–
CC[C@H](C)[C@H](NC(C)=O)C(=O)N[C@H]1CSSC[C@@H](C(=O)N[C@H](C(=O)N[C@@H](CCC(=O)O)C(=O)N[C@@H](C)C(N)=O)[C@@H](C)O)NC(=O)[C@H](CCCNC(=N)N)NC(=O)[C@H](Cc2c[nH]cn2)NC(=O)[C@H](CCC(=O)O)NC(=O)CNC(=O)[C@H](Cc2c[nH]c3ccccc23)NC(=O)[C@H](CC(=O)O)NC(=O)[C@H](CCC(N)=O)NC(=O)[C@H](Cc2c[nH]c3ccccc23)NC(=O)[C@H]([C@@H](C)CC)NC1=O [Compound 25] (Ac-ICIWQDWGEHRCTEA-NH2; disulfide 2-12)	+ (denotes solubility at the given condition, as determined by UV absorbance being less than 0.1 AU at 340 nm and the sample being clear when manually inspected.)	− (denotes lack of solubility at the given condition, as UV absorbance at 340 nm exceeds 0.1 AU and/or it is visibly turbid or contains particles.)	− (denotes lack of solubility at the given condition, as UV absorbance at 340 nm exceeds 0.1 AU and/or it is visibly turbid or contains particles.)	+ (denotes solubility at the given condition, as determined by UV absorbance being less than 0.1 AU at 340 nm and the sample being clear when manually inspected.)	+ (denotes solubility at the given condition, as determined by UV absorbance being less than 0.1 AU at 340 nm and the sample being clear when manually inspected.)	–	< 100	–
CC[C@H](C)[C@H](NC(C)=O)C(=O)N[C@H]1CSSC[C@@H](C(=O)N[C@@H](CCC(=O)O)C(=O)NCC(=O)N[C@@H](CCC(=O)O)C(N)=O)NC(=O)[C@H](CCCNC(=N)N)NC(=O)[C@H](Cc2c[nH]cn2)NC(=O)[C@H](CCC(=O)O)NC(=O)CNC(=O)[C@H](Cc2c[nH]c3ccccc23)NC(=O)[C@H](CC(=O)O)NC(=O)[C@H](CCC(N)=O)NC(=O)[C@H](Cc2c[nH]c3ccccc23)NC(=O)[C@H]([C@@H](C)CC)NC1=O [Compound 27] (Ac-ICIWQDWGEHRCEGE-NH2; disulfide 2-12)	− (denotes lack of solubility at the given condition, as UV absorbance at 340 nm exceeds 0.1 AU and/or it is visibly turbid or contains particles.)	− (denotes lack of solubility at the given condition, as UV absorbance at 340 nm exceeds 0.1 AU and/or it is visibly turbid or contains particles.)	− (denotes lack of solubility at the given condition, as UV absorbance at 340 nm exceeds 0.1 AU and/or it is visibly turbid or contains particles.)	+ (denotes solubility at the given condition, as determined by UV absorbance being less than 0.1 AU at 340 nm and the sample being clear when manually inspected.)	+ (denotes solubility at the given condition, as determined by UV absorbance being less than 0.1 AU at 340 nm and the sample being clear when manually inspected.)	–	< 100	–
